Assay results from US20250327027A1, “METHODS TO GENERATE ENHANCED TUMOR INFILTRATING LYMPHOCYTES THROUGH MICROFLUIDIC DELIVERY” (STEMCELL TECHNOLOGIES CANADA INC., priority 2021, published 2025).
“And” between values parts separate entries of the source, which are not always exact repeats. Equal values may be shown once.

Experiments:
post-REP TILs [1] = experiment: Engineered TIL resistance to intrinsic apoptosis induced by Venetoclax and S63548 (Apotracker, Bcl-2 FACS); format: cell-based, human
Protocol: Fresh post-REP TILs were collected from a 6-well G-Rex plate, centrifuged at 400 rcf at room temperature, and then washed and resuspended to 3-10M/mL in AIM V and transferred to a T25 flask and cultured at 37° C. for 24 hr. The cells were then prepared for squeeze-processing. The cells were counted, filtered through a 40-um cell strainer, washed, and the concentration was adjusted to 60M/mL by adding XVivo-15.
As shown above in Table 13, Group A was used as a control (i.e., not contacted with any payload and not squeeze processed). Group 13 was squeeze processed without any payload at room temperature using a microfluidic constriction (70 μm depth, 4.5 un width, and 10 μm length) at 30 psi. Groups C-H were squeeze processed at room temperature with the payloads shown above, i.e., Group C: mbIL-7 mRNA; Group D: Bcl-2 mRNA; Group E: mbIL-7 mRNA+Bcl-2 mRNA; Group F: mbIL-2 mRNA; Group G: mbIL-2 mRNA+Bcl-2 mRNA; Group H: mbIL-2 mRNA+mbIL-7 mRNA+Bcl-2 mRNA. Groups C-H were squeeze processed using the same conditions as in Group B (i.e., microfluidic constriction: 70 μm depth, 4.5 μm width, and 10 μm length; at 30 psi). […]
At 24 hours, 200 ul of cells were aspirated and centrifuged at 400 ref for 4 minutes at room temperature. […] The cells were then analyzed using an Attune Flow cytometer.

TILs = experiment: Effect of cytokine (IL-2 or IL-15) during TIL expansion (colorectal tumor); format: cell-based; conditions: for Cell Count on Day 13 / Viability on Day 13: replicate wells
Protocol: Briefly, freshly resected colorectal tumor was rinsed in 1× Hank's Balanced Salt Solution (HBSS) with 10 µg/mL gentamicin and dissected into 8-27 mm^3 fragments using a forceps and scalpel. […] The G-Rex6M plate was then placed in a 37° C., 5% CO2 incubator for 3 days.
On day 3, the G-Rex6M plate was removed from the incubator. […] The G-Rex6M plate was returned to the 37° C., 5% CO2 incubator. On day 7 and 10, the G-Rex6M plate was removed from the incubator. […] The G-Rex6M plate was returned to the 37° C., 5% CO2 incubator.
[…] The number and viability of the TILs was assessed using a NucleoCounter NC-200.

[2] = test system: melanoma and colorectal TILs; experiment: Post thaw analysis of cryopreserved squeeze processed TILs (effect of DMSO and HSA); format: cell-based; conditions: DMSO 0% to 5%
Protocol: To evaluate whether freeze-thaw (including any effect from one or more of the cryopreservatives) has an effect on the squeeze processed TILs described herein, the following methods were used and the mRNA translation and phenotypic expression were assessed. Briefly, cryopreserved, squeezed melanoma and colorectal TILs were thawed and resuspended in CTS OpTmizer media. Post thaw cell recovery and viability were measured via NC-200. Cells were plated in tissue culture-treated plates and incubated for 4, 24 hours, and 8 days in a 37° C. incubator. The TILs were squeezed were assessed at each time point including t=0 (immediately post thaw) by flow cytometry for viability, surface levels of mbIL-2 and mbIL-12, and phenotypic markers such as CCR7, CD45RO, CD62L, CD127, KLRG-1, CD25, CD69, CD39, CD103, and CD25.
To assess the potential impact from DMSO, the following TILs were formulated in varying concentrations of DMSO (i.e., 0%, 1.25%, 2.5%, and 5%): (1) TILs squeeze processed with mRNA encoding membrane-bound LL-2 and mRNA encoding IL-12; and (2) non-squeeze processed TILs. Each of the formulated samples also contained 5% human serum albumin. Then, the TILs were cryopreserved and subsequently thawed as described above.

post-REP TILs [3] = experiment: Proliferative capacity of CD62L positive mbIL-2 and mbIL-12 engineered TILs; format: cell-based, human; conditions: baseline CD62L positive and baseline CD62L negative fractions; day 4
Protocol: Fresh TILs from two donors on day 14 of REP were prepared for squeeze-processing Donors were processed in parallel throughout the experiment. TILs were centrifuged at 400 rcf for 4 minutes at room temperature. The supernatant was aspirated, and the cell populations were separately resuspended in 1 mL FACs buffer Cells were incubated at 4 C for 20 minutes with fluorescent anti-human antibody targeting CD62L. After incubation 150 μL of FACs isolation buffer were added to each sample and the samples were spun at 400 rcf for 4 minutes. Cells were then isolated using magnetic beads that select based on fluorescence as a proxy for CD62L expression. Cell fractions were incubated for 20 minutes at 37 C with 1 μM final cytoplasmic dyes; CD62L positive cells were incubated with dye that excites/emits at 405/450 nm and CD62L negative cells were incubated with dye that excites/emits at […]. The cells were then pooled, counted, filtered through a 40-um cell strainer, washed, and the concentration was adjusted to 50-80M/mL by adding XVivo-15.
As shown above in Table 18, Groups A and E were used as controls (i.e., not contacted with any payload and not squeeze processed). […]
At days 1, 4, and 6, 200 ul of cells were aspirated and centrifuged at 400 rcf for 4 minutes at room temperature. […] The cells were then analyzed using an Attune Flow cytometer.

post-REP TILs [4] = experiment: mbIL-7 and Bcl-2 engineered TILs resistance to rhIL-7 sink effect (viability); format: cell-based, human; conditions: day 5; 250 μg/mL mbIL-7 mRNA
Protocol: Three 50M cell vials were thawed and diluted with FACs buffer. […] Cells were transferred to a T75 flask and cultured at 37° C. To allow the cells to recover from thaw, cells were cultured for 72 hr.
Cells were prepared for squeeze-processing. Cells were collected, centrifuged at 400 rcf at room temperature, and then washed, resuspended to 3-10M/mL in AIM V media without rhIL-2 to remove rhIL-2-dependent support prior to squeeze processing, transferred to a T25 flask, and cultured at 37° C. for 24 hours. The cells were then counted, filtered through a 40-um cell strainer, washed, and the concentration was adjusted to 50M/mL by adding XVivo-15.
As shown above in Table 19, Group A was used as a control (i.e., not contacted with any payload and not squeeze processed). Group 13 was squeeze processed without any payload at room temperature using microfluidic constrictions (70 μm depth, 4.5 m width, and 10 μm length) at 30 psi. […]
At days 1 and 5, 200 ul of cells were aspirated and centrifuged at 400 rcf for 4 minutes at room temperature. […] The cells were then analyzed using an Attune Flow cytometer.

Molecule: CC1(C)CCC(CN2CCN(c3ccc(C(=O)NS(=O)(=O)c4ccc(NCC5CCOCC5)c([N+](=O)[O-])c4)c(Oc4cnc5[nH]ccc5c4)c3)CC2)=C(c2ccc(Cl)cc2)C1 [Venetoclax]
- apoptosis as measured by Apotracker dye (post-REP TILs [1]; 10, 100 or 1000 nM each of Venetoclax and S63548, 24 hours): induced apoptosis
- concentration with strongest dynamic range of cell killing (post-REP TILs [1]; Venetoclax and S63548 together): 10 nM

Molecule: IL-15: recombinant IL-15 added to culture media
- Cell Count on Day 13 (TILs; 500 U/mL IL-15): 1.92 × 10^7 and 8.32 × 10^6
- Viability on Day 13 (TILs; 500 U/mL IL-15): 96.5% and 93.3%
- Cell Count on Day 13 (TILs; 3,000 U/mL IL-15): 3.34 × 10^6 and 2.96 × 10^7
- Viability on Day 13 (TILs; 3,000 U/mL IL-15): 94.8% and 91.3%
- TIL expansion in culture (TILs; colorectal tumor fragments): promote TIL expansion

Molecule: C[S+](C)[O-] [DMSO]
- translation of the delivered mRNAs post-thaw [2]: did not have a negative impact on the translation of the delivered mRNAs
- viability over time after thaw ([2]; squeeze-processed and unprocessed TILs): less DMSO also led to lower viability over time after thaw

B1: rhIL-12: recombinant human IL-12 added to culture (protein, UniProt P29459 23-219; P29460 23-328, looked up)
Interleukin-12 subunit alpha: RNLPVATPDPGMFPCLHHSQNLLRAVSNMLQKARQTLEFYPCTSEEIDHEDITKDKTSTVEACLPLELTKNESCLNSRETSFITNGSCLASRKTSFMMALCLSSIYEDLKMYQVEFKTMNAKLLMDPKRQIFLDQNMLAVIDELMQALNFNSETVPQKSSLEEPDFYKTKIKLCILLHAFRIRAVTIDRVMSYLNAS
Interleukin-12 subunit beta: IWELKKDVYVVELDWYPDAPGEMVVLTCDTPEEDGITWTLDQSSEVLGSGKTLTIQVKEFGDAGQYTCHKGGEVLSHSLLLLHKKEDGIWSTDILKDQKEPKNKTFLRCEAKNYSGRFTCWWLTTISTDLTFSVKSSRGSSDPQGVTCGAATLSAERVRGDNKEYEYSVECQEDSACPAAEESLPIEVMVDAVHKLKYENYTSSFFIRDIIKPDPPKNLQLKPLKNSRQVEVSWEYPDTWSTPHSYFSLTFCVQVQGKSKREKKDRVFTDKTSATVICRKNASISVRAQDRYYSSSWSEWASVPCS
- CD62L positive cells (post-REP TILs [3]): enriched

B2: rhIL-7: recombinant human (rh) IL-7 (protein, UniProt P13232 26-177, looked up)
Interleukin-7: DCDIEGKDGKQYESVLMVSIDQLLDSMKEIGSNCLNNEFNFFKRHICDANKEGMFLFRAARKLRQFLKMNSTGDFDLHLLKVSEGTTILLNCTGQVKGRKPAALGEAQPTKSLEENKSLKEQKKLNDLCFLKRLLQEIKTCWNKILMGTKEH
- rhIL-7 support giving viability equal to mbIL-7-engineered TILs (post-REP TILs [4]): 10 ng/mL
